Like-named read-outs stand apart in the source and are kept apart here.
Legend:
[1] = system: P. aeruginosa PAO1; experiment: Sensitization to antibiotics: MIC in medium supplemented with phytoglycogen; type: cell-based, Pseudomonas aeruginosa; conditions: for ↓ Fold-change in MIC (cationized phytoglycogen) MIC.5 mg/ml: 0.5 mg cationized phytoglycogen · ml^−1 Mueller-Hinton Broth; for ↓ Fold-change in MIC (cationized phytoglycogen) MIC1 mg/ml: 1 mg cationized phytoglycogen · ml^−1 Mueller-Hinton Broth; for ↓ Fold-change in MIC (cationized phytoglycogen) MIC10 mg/ml: 10 mg cationized phytoglycogen · ml^−1 Mueller-Hinton Broth
Description: (§1) MIC assays as defined in Example 15 were performed in sterile and untreated 96 well microtitre plates according to the broth micro-dilution technique described in either the Clinical and Laboratory Standards Institute document M07-A9: Methods for Dilution Antimicrobial Susceptibility Tests for Bacteria that Grow Aerobically; Approved Standard and document M27-A2 Reference Method for Broth Dilution Antifungal Susceptibility Testing of Yeasts; Approved Standard—Second Edition, with the exception that, where indicated, medium was additionally supplemented with native or cationized phytoglycogen. Assessments done using C. utilis ATCC9950, B. subtilis 168 and E. coli AB264 employed native or cationized phytoglycogen at concentrations ⅛, ¼, ½ their respective MIC values for cationized phytoglycogen. Assessments of the opportunistic pathogen P. aeruginosa PAO1 were made at final in-assay concentrations of 0.5, 1 or 10 mg native or cationized phytoglycogen.ml^−1. Experiments were performed as in-assay duplicates, and were repeated a minimum of three times (n=6).
(§2) MIC assays were performed in duplicate within each experiment and were repeated a minimum three times to confirm the data (n=6). MIC values with a four-fold or greater change relative to the non-supplemented medium MIC represent a statistically-significant change in MIC value. Only those antibiotic-cationized phytoglycogen combinations which caused a four-fold change relative to the non-supplemented medium MIC were deemed as indicative of resulting in potentiation (MIC value was less), or tolerance (MIC value increased).

[2] = system: E. coli AB264; experiment: as above; type: cell-based; conditions: Escherichia coli; for fold-change reduction in MIC, CP0.125: cationized phytoglycogen at 0.125 of its MIC; for fold-change reduction in MIC, CP0.25: cationized phytoglycogen at 0.25 of its MIC; for fold-change reduction in MIC, CP0.5: cationized phytoglycogen at half-strength of its MIC
[3] = system: B. subtilis 168; experiment: as above; type: cell-based; conditions: Bacillus subtilis; for fold-change reduction in MIC, CP0.125: cationized phytoglycogen at 0.125 of its MIC; for fold-change reduction in MIC, CP0.25: cationized phytoglycogen at 0.25 of its MIC; for fold-change reduction in MIC, CP0.5: cationized phytoglycogen at half-strength of its MIC
[4] = system: C. utilis ATCC9950; experiment: as above; type: cell-based; conditions: Candida utilis
Description: as §1, §2

[5] = system: Candida utilis ATCC9950; experiment: MIC of amphotericin B-phytoglycogen conjugate, modified broth microdilution; type: cell-based; conditions: 35° C.
Description: The activity of the amphotericin B-phytoglycogen conjugate (PHG-AMB) was assayed against a yeast, Candida utilis ATCC9950, using a modified broth microdilution assay (CLSI M27-A2; Example 15). RPMI 1640 medium (Sigma-Aldrich; Canada), containing no sodium bicarbonate, supplemented with 0.165 M MOPS and adjusted to a pH of 7.0, was used for the assay. Stocks of 1600 μg AMB/ml DMSO were stored at −80° C. and diluted prior to use. 500 μg PHG-AMB.ml^−1 RPMI 1640 was prepared fresh on the day of assay. Briefly, doubling dilutions of 16 μg AMB.ml^−1 RPMI 1640 and 500 μg PHG-AMB.ml^−1 RPMI 1640 were prepared by serial two-fold dilution in RPMI 1640. Controls comprised AMB supplemented with phytoglycogen adjusted to mimic the changing concentration of PHG-AMB in the wells. Negative growth control wells contained sterile medium. Positive growth control wells contained medium or medium supplemented with phytoglycogen. […] Assays were performed as in duplicate replicate with a minimum of three independent replicates.

[6] = system: P. aeruginosa PAO1 biofilm; experiment: Biofilm eradication: 20 h biofilms treated with antibiotic and cationized phytoglycogen; type: cell-based, Pseudomonas aeruginosa; conditions: 24 h, medium alone
Description: Biofilm growth and treatments were performed in sterile 96 well polystyrene plates. Sterile solutions of gamma-irradiated cationized phytoglycogen was prepared by reconstitution and dilution as required in sterile Mueller-Hinton broth. P. aeruginosa PAO1 stocks were revived by sub-culturing P. aeruginosa PAO1 (37° C., 150 rpm, 16-18 h) in Mueller-Hinton broth (Oxoid; Fisher Scientific, Canada). The inoculum was prepared immediately prior to use by diluting in sterile Mueller-Hinton broth to a final in-assay cell density of 5×10^5 CFU.ml^−1. 100 μl of this solution was transferred to wells and incubated (37° C., 150 rpm). Sterile broth was the negative growth control. At 20 h, plates were transferred to a biological safety cabinet, well contents were gently aspirated and the wells rinsed with sterile 0.9% (wt/vol) NaCl. […] Positive growth controls contained inoculated medium, non-supplemented or with 1 or 10 mg cationized phytoglycogen.ml^−1. Plates were incubated at 37° C. for a further 24 h, after which biofilms were quantitated as previously described. Experiments were done in quadruplicate replicate and repeated three times (n=12).

[7] = P. aeruginosa, non-supplemented Mueller-Hinton Broth
[8] = Pseudomonas aeruginosa, PAO1, P. aeruginosa, non-supplemented Mueller-Hinton Broth, read-out: MIC

Row | Molecule | ↓ Fold-change in MIC (cationized phytoglycogen) MIC.5 mg/ml ([1]; P. aeruginosa) | ↓ Fold-change in MIC (cationized phytoglycogen) MIC1 mg/ml ([1]; P. aeruginosa) | ↓ Fold-change in MIC (cationized phytoglycogen) MIC10 mg/ml ([1]; P. aeruginosa) | fold-change reduction in MIC, CP0.125 [2] | fold-change reduction in MIC, CP0.25 [2] | fold-change reduction in MIC, CP0.5 [2] | fold-change reduction in MIC, CP0.125 [3] | fold-change reduction in MIC, CP0.25 [3] | fold-change reduction in MIC, CP0.5 [3] | MIC [1, 8] [µg/mL] | other results
1 | polymyxin B [polymixin B] | 1-2 fold | ↓ 2-4 fold | 2 fold | – | – | – | – | – | – | – | MIC [1, 7]: 0.125 to 0.25 µg/mL
2 | CC1(C)S[C@@H]2[C@H](NC(=O)C(C(=O)O)c3ccccc3)C(=O)N2[C@H]1C(=O)O (stereo partly shown) [carbenicillin] | ↓ 16-32 fold | ↓ 32 fold | ↓ 8-16 fold | 1-2 fold | ↓4-8 ^ fold | ↓8-16^ fold | 1 fold | 2 fold | ↓4-8 fold | 64 | –
3 | CC1(C)S[C@@H]2[C@H](NC(=O)[C@H](N)c3ccccc3)C(=O)N2[C@H]1C(=O)O [ampicillin] | ↓ 8 fold | ↓ 8-16 fold | 2 fold | 1-2 fold | 1-2 fold | 1-2 fold | 1 fold | 1 fold | 2 fold | 1020 | –
4 | C[C@@H]1[C@H](O)[C@@H](C)/C=C/C=C/C=C/C=C/C=C/C=C/C=C/[C@H](O[C@@H]2O[C@H](C)[C@@H](O)[C@H](N)[C@@H]2O)C[C@@H]2O[C@](O)(C[C@@H](O)C[C@@H](O)[C@H](O)CC[C@@H](O)C[C@@H](O)CC(=O)O[C@H]1C)C[C@H](O)[C@H]2C(=O)O [amphotericin B] | – | – | – | – | – | – | – | – | – | – | fold-change reduction in MIC, CP0.125 ([4]; cationized phytoglycogen at 0.125 of its MIC): 1-2 fold; fold-change reduction in MIC, CP0.25 ([4]; cationized phytoglycogen at 0.25 of its MIC): 1 fold; fold-change reduction in MIC, CP0.5 ([4]; cationized phytoglycogen at half-strength of its MIC): ↓4 fold; MIC ([5]; RPMI 1640, 48 h): 0.5 μg AMB.ml^−1; MIC ([5]; RPMI 1640 supplemented with phytoglycogen, 48 h): 0.5 μg AMB.ml^−1
5 | O=C(N[C@H](CO)[C@H](O)c1ccc([N+](=O)[O-])cc1)C(Cl)Cl [chloramphenicol] | ↓ 4 fold | ↓ 8 fold | 2 fold | 1-2 fold | 1-2 fold | 1-2 fold | 1 fold | ↓2-4 fold | – | 64 | –
6 | CN[C@H](CC(C)C)C(=O)N[C@H]1C(=O)N[C@@H](CC(N)=O)C(=O)N[C@H]2C(=O)N[C@H]3C(=O)N[C@H](C(=O)N[C@H](C(=O)O)c4cc(O)cc(O)c4-c4cc3ccc4O)[C@H](O)c3ccc(c(Cl)c3)Oc3cc2cc(c3O[C@@H]2O[C@H](CO)[C@@H](O)[C@H](O)[C@H]2O[C@H]2C[C@](C)(N)[C@H](O)[C@H](C)O2)Oc2ccc(cc2Cl)[C@H]1O [vancomycin] | ↓ 2-4 fold | ↓ 16 fold | ↓ 4 fold | 1-2 fold | ↓2-4 ^ fold | ↓4-16^ fold | 1 fold | 1 fold | 1-2 fold | – | MIC ([1]; Pseudomonas aeruginosa, PAO1, read-out: MIC (μg · ml^−1)): 1020 µg/mL
7 | O=C(O)c1cn(C2CC2)c2cc(N3CCNCC3)c(F)cc2c1=O [ciprofloxacin] | – | – | – | – | – | – | – | – | – | – | change in biofilm of 20 h biofilms ([6]; at the MIC): no change in biofilm; reduction of biofilm ([6]; four-fold the MIC): 73%; reduction of biofilm ([6]; two-fold the MIC): 64%
8 | CCn1cc(C(=O)O)c(=O)c2ccc(C)nc21 [nalidixic acid] | ↓ 4-32 fold | ↓ 16-32 fold | ↓ 8-16 fold | – | – | – | – | – | – | 1020 | –
9 | CC(C)(O/N=C(\C(=O)N[C@@H]1C(=O)N2C(C(=O)[O-])=C(C[n+]3ccccc3)CS[C@H]12)c1csc(N)n1)C(=O)O [ceftazidime] | ↓ 8 fold | ↓ 32-64 fold | ↓ 4-8 fold | – | – | – | – | – | – | 2 | –
10 | CC[C@H]1OC(=O)[C@H](C)[C@@H](O[C@H]2C[C@@](C)(OC)[C@@H](O)[C@H](C)O2)[C@H](C)[C@@H](O[C@@H]2O[C@H](C)C[C@H](N(C)C)[C@H]2O)[C@](C)(O)C[C@@H](C)C(=O)[C@H](C)[C@@H](O)[C@]1(C)O [erythromycin] | ↓ 4 fold | ↓ 8 fold | 1-2 fold | 1-2 fold | 1-2 fold | 1-2 fold | 1-2 fold | ↓2-4 fold | ↓2-4 fold | 128 | –
11 | CN(C)[C@@H]1C(O)=C(C(N)=O)C(=O)[C@@]2(O)C(O)=C3C(=O)c4c(O)cccc4[C@@](C)(O)[C@H]3C[C@@H]12 [tetracycline] | ↓ 8 fold | ↓ 8 fold | 2 fold | – | – | – | – | – | – | 16 to 32 | –
12 | gentamicin | 2 fold | 2 fold | 1 fold | 1-2 fold | 2 fold | ↓4-8 ^ fold | 1-2 fold | ↓2-4 fold | ↓4-8 fold | – | MIC [1, 7]: 0.5 µg/mL
13 | CC1(C)S[C@@H]2[C@H](NC(=O)Cc3ccccc3)C(=O)N2[C@H]1C(=O)O [penicillin G] | ↓ 16-32 fold | ↓64-128 fold | ↓ 2-4 fold | 1-2 fold | ↓4-8 ^ fold | ↓8 fold | 1-2 fold | ↓8-16 fold | ↓16-32 fold | – | MIC [1, 7]: 12500 µg/mL
14 | CO[C@@H]1[C@@H](OC(N)=O)[C@@H](O)[C@H](Oc2ccc3c(O)c(NC(=O)c4ccc(O)c(CC=C(C)C)c4)c(=O)oc3c2C)OC1(C)C [novobiocin] | ↓ 4-16 fold | ↓ 16-32 fold | ↓ 4 fold | – | – | – | – | – | – | 2050 | –

Source: patent US20190125896A1, “ANTI-INFECTIVE COMPOSITIONS COMPRISING PHYTOGLYCOGEN NANOPARTICLES” (MIREXUS BIOTECHNOLOGIES INC., priority 2016, published 2019)
